Columns and labels:
human spermatozoa [1] = assay: progressively motile sperm, percent change vs DMSO (non-capacitating); higher = more of the measured sperm population than DMSO, for viability, fewer PI-positive (dead) cells than DMSO; extreme values may be limits of the assay
HepG2 = HepG2 toxicity (resazurin), effect normalised to DMSO (DMSO = 0); higher = more features changed / larger toxic effect; settings: incubation time: 70h incubation
human spermatozoa [2] = assay: acrosome-reacted (PNA+) sperm after agonist cocktail, percent change vs DMSO (capacitating); higher = more of the measured sperm population than DMSO, for viability, fewer PI-positive (dead) cells than DMSO; settings: incubation time: 3h, capacitating + agonist cocktail 1h
HeLa [3] = assay: HeLa toxicity: nuclei-count effect normalised to DMSO (DMSO = 0); higher = more features changed / larger toxic effect; settings: incubation time: 24h incubation
human spermatozoa [4] = assay: total motile sperm, percent change vs DMSO (non-capacitating); higher = more of the measured sperm population than DMSO, for viability, fewer PI-positive (dead) cells than DMSO
human spermatozoa [5] = assay: progressively motile sperm, percent change vs DMSO (capacitating); higher = more of the measured sperm population than DMSO, for viability, fewer PI-positive (dead) cells than DMSO; settings: incubation time: 30min incubation
human spermatozoa [6] = assay: viability fold change, 1 - (PI-positive fraction / DMSO median); higher = more of the measured sperm population than DMSO, for viability, fewer PI-positive (dead) cells than DMSO; settings: incubation time: 3h, non-capacitating
human spermatozoa [7] = assay: hyperactivated motile sperm, percent change vs DMSO (capacitating); higher = more of the measured sperm population than DMSO, for viability, fewer PI-positive (dead) cells than DMSO; settings: incubation time: 30min incubation
HeLa [8] = assay: Cell Painting percent induction (share of features beyond 2 z-scores vs DMSO); higher = more features changed / larger toxic effect; extreme values may be limits of the assay; settings: incubation time: 24h incubation
human spermatozoa [9] = assay: change in acrosome-reacted (PNA+) sperm vs DMSO, no agonist (capacitating); higher = more of the measured sperm population than DMSO, for viability, fewer PI-positive (dead) cells than DMSO; settings: incubation time: 3h
[10] = incubation time: 10min incubation, 9.99 µM
[11] = incubation time: 10min incubation, 29.9 µM
[12] = incubation time: 3h incubation, 9.99 µM
[13] = incubation time: 3h incubation, 29.9 µM
[14] = incubation time: 6h incubation, 9.99 µM
[15] = incubation time: 6h incubation, 29.9 µM
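Wherever progressively motile sperm, percent change vs DMSO (non-capacitating) is given: pooled live human sperm from at least 3 donors, tracked by automated microscopy in 0.5 s time-lapse movies, compounds at 10 and 30 µM, versus median of 16 DMSO wells per plate.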
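Wherever total motile sperm, percent change vs DMSO (non-capacitating) is given: sperm pooled from at least 3 donors, tracked in 0.5 s time-lapse movies by automated microscopy after 10 min, 3 h or 6 h with compound at 10 or 30 µM.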

Structure (SMILES) | progressively motile sperm (human spermatozoa [1]; [10]) [%] | progressively motile sperm (human spermatozoa [1]; [11]) [%] | progressively motile sperm (human spermatozoa [1]; [12]) [%] | progressively motile sperm (human spermatozoa [1]; [13]) [%] | progressively motile sperm (human spermatozoa [1]; [14]) [%] | progressively motile sperm (human spermatozoa [1]; [15]) [%] | HepG2 toxicity (HepG2; 10 µM) [%] | HepG2 toxicity (HepG2; 30 µM) [%] | acrosome-reacted (human spermatozoa [2]; 9.99 µM) [%] | acrosome-reacted (human spermatozoa [2]; 29.9 µM) [%] | HeLa toxicity: nuclei-count effect normalised (HeLa [3]; 9.99 µM) [%] | HeLa toxicity: nuclei-count effect normalised (HeLa [3]; 29.9 µM) [%] | total motile sperm (human spermatozoa [4]; [10]) [%] | total motile sperm (human spermatozoa [4]; [11]) [%] | total motile sperm (human spermatozoa [4]; [12]) [%] | total motile sperm (human spermatozoa [4]; [13]) [%] | total motile sperm (human spermatozoa [4]; [14]) [%] | total motile sperm (human spermatozoa [4]; [15]) [%] | progressively motile sperm (human spermatozoa [5]; 9.99 µM) [%] | progressively motile sperm (human spermatozoa [5]; 29.9 µM) [%] | viability fold change (human spermatozoa [6]; 9.99 µM) | viability fold change (human spermatozoa [6]; 29.9 µM) | hyperactivated motile sperm (human spermatozoa [7]; 9.99 µM) [%] | hyperactivated motile sperm (human spermatozoa [7]; 29.9 µM) [%] | Cell Painting percent induction (HeLa [8]; 9.99 µM) [%] | Cell Painting percent induction (HeLa [8]; 29.9 µM) [%] | change in acrosome-reacted (human spermatozoa [9]; 9.99 µM) [%] | change in acrosome-reacted (human spermatozoa [9]; 29.9 µM) [%]
N=C(N)Nc1ccc(C(=O)Oc2ccc3cc(C(=N)N)ccc3c2)cc1 [Nafamostat] | -2.19 | 0.269 | -19.4 | -27.7 | -23.3 | -29.6 | -7.68 | 4.06 | 5.51 | 15.9 | 2.4 | 1.27 | -0.692 | 2.17 | -4.33 | -1.82 | -5.56 | -0.0709 | 3.69 | 9.5 | -0.884 | -0.901 | 5.36 | 1.98 | 0 | 0 | 0.86 | 1.56
O=C(Nc1ccc([N+](=O)[O-])cc1Cl)c1cc(Cl)ccc1O [Niclosamide] | -28.1 | -27.6 | -26.2 | -30.1 | -18.2 | -26.8 | -3.07 | 1.35 | 7.25 | 4.65 | 31.1 | 32.3 | -2.96 | -1.25 | -8.32 | -3.27 | -6.27 | -2.49 | -1.8 | -5.95 | 0.501 | 0.431 | -59.6 | -70.1 | 8.47 | 7.82 | 1.03 | 1.07
O=C(O)c1cccnc1Nc1cccc(C(F)(F)F)c1 [Niflumic acid] | 9.44 | 5.93 | -5.45 | 4.68 | 7.86 | -5.16 | 4.41 | -6.15 | 4.85 | -0.457 | 2.94 | -2.27 | 2.12 | 1.32 | -5.94 | -1.61 | -3.08 | -6.87 | 5.54 | 7.87 | -1.06 | -0.652 | 19.3 | -6.47 | 0 | 0 | 0.714 | 0.944
COC(=O)[C@]1(C)CC[C@]2(C)CC[C@]3(C)C4=CC=C5C(=CC(=O)C(O)=C5C)[C@]4(C)CC[C@@]3(C)[C@@H]2C1 [Pristimerin] | -86.8 | -99.9 | -100 | -100 | -100 | -99.9 | 103 | 103 | -52.1 | -57.5 | 98.7 | 98.7 | -50.2 | -83.1 | -90.8 | -88.7 | -92.1 | -85.4 | -74.5 | -96.6 | -0.933 | -1.2 | -72.5 | -73.6 | 46.9 | 38.9 | 3.63 | 6.18
CCOCc1nc2c(N)nc3ccccc3c2n1CC(C)(C)O [Resiquimod] | -38.4 | -75.7 | -66.1 | -88 | -66.2 | -83.9 | 12.3 | -1.68 | 2.21 | -0.339 | 1.14 | 0.735 | -0.764 | -12.1 | -11.9 | -23.9 | -12.4 | -21.3 | -29.5 | -59.7 | -0.843 | -0.207 | -81.8 | -84.5 | 0 | 0 | 0.989 | 0.739
[O-][S+](c1ccccc1)c1ccc2nnnn2n1 (configuration not stated) [Ro 106-9920] | -34.9 | -68.2 | -100 | -99.9 | -100 | -100 | 103 | 103 | 149 | 142 | 43.7 | 96.9 | -8.15 | -30.9 | -92.3 | -89.9 | -92.2 | -89.8 | -9.75 | -78.3 | -0.184 | -0.13 | -3.35 | -67.1 | 0.684 | 42.4 | 8.05 | 18.3
[O]=[V]([O-])([O-])[O-] [Sodium orthovanadate] | 7.34 | 4.35 | 13.8 | 7.93 | 20 | 10.3 | -3.1 | 8.27 | 9.33 | 1.67 | -6.61 | -4.07 | 2.91 | 0.876 | 8.66 | -0.441 | 8.42 | -0.812 | 5.23 | 3.21 | -0.276 | -0.0929 | 14.9 | 5.6 | 0 | 0 | 0.239 | 0.284
CCc1c(C)nc(SCC(=O)Nc2nc(-c3ccc(OC)cc3)cs2)[nH]c1=O [T16Ainh-A01] | 5.37 | 6.45 | 1.94 | 14.7 | 4.81 | 19.4 | -6.4 | -1.86 | 8.11 | 6.61 | 6.48 | -5.14 | 2.04 | 2.24 | -4.04 | 0.707 | -7.94 | -0.932 | 2.99 | 14.4 | -0.653 | -0.578 | -2.36 | -0.263 | 0 | 0.108 | 0.555 | 1.02
CNC(=O)c1ccccc1Nc1nc(Nc2ccc(N3CCOCC3)cc2OC)ncc1Cl [TAE226] | 30.1 | 34.5 | 9.37 | 3.96 | 25.7 | 23.8 | 92.5 | 99.8 | 10.7 | 31.6 | 45.5 | 83.4 | 0.613 | 1.31 | -18.9 | -22.2 | -16.2 | -14.9 | -5.22 | -5.06 | -0.257 | 0.581 | 137 | 34.1 | 1.84 | 21.1 | 1.37 | 1.97
